These results are taken from ChEMBL document CHEMBL1201862, “PubChem BioAssay data set” (2004).

Test systems include M19-MEL; KM-20L2; DLD-1; SNB-78; DMS-114; BT-549; DMS-273; HOP-18.
Holding throughout (experiment): NCI anticancer screen, dose series, 48 h

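Cells were grown in 96-well plates and exposed to each compound for 48 hours at five concentrations; endpoints were interpolated linearly between bracketing concentrations, or set to the highest concentration if not reached. GI50 is the concentration that inhibits growth by half.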 The source made the active and inactive calls. Cut-off read from the data, not from the text of the source: active = GI50 up to about 1.1 µM and inactive = higher. Square brackets hold non-standard residues; d marks the D form. Peptide text beside a SMILES is read from it. Ac5c = NC1(C(=O)O)CCCC1

On to `CC1=NN(C(=O)c2ccccc2O)C(=O)/C1=C/c1ccc([N+](=O)[O-])cc1`, for which the GI50 with M19-MEL is 2.3 µM (inactive); with KM-20L2, 7.96 µM (inactive); with DLD-1 it was 0.0643 µM (active); with SNB-78 it was 0.0861 µM (active); in the test on DMS-114, 0.0875 µM (active); in the test with BT-549 it was 0.328 µM (active).
Turning to `Oc1cc(-c2ccc(Oc3ccccc3)cc2)nc2cc3c(cc12)OCO3`, the GI50 in the test with M19-MEL, in the test on DMS-273, in the test with KM-20L2, in the test on DLD-1 and with DMS-114 was > 100 µM (inactive) throughout.
Consider `Cc1c(CNc2ccc(C(=O)NC(CC(=O)O)C(=O)O)cc2)ccc2nc(N)nc(N)c12` (configuration not stated), for which the GI50 in the test with M19-MEL was 0.122 µM (active); in the test with HOP-18, 0.867 µM (active); in the test with DMS-273, < 0.01 µM (active); with DLD-1, < 0.01 µM (active); with SNB-78 it was > 100 µM (inactive); in the test with DMS-114 it was < 0.01 µM (active). The GI50 with BT-549 was > 100 µM (inactive).
As to `COC(=O)C(=O)C(C(=O)C(=O)Nc1ccc(C)cc1)c1nc2ccc(C(=O)c3ccccc3)cc2nc1O` (configuration not stated), the GI50 with BT-549 was > 100 µM (inactive).
`COc1ccc2ccccc2c1C1NC(=O)c2ccccc2N1` (configuration not stated): in the test with BT-549, the GI50 was > 100 µM (inactive).
As for `CC(C)/C(Cl)=N/OC(=O)Nc1ccc(OC(F)(F)F)cc1`, the GI50 in the test on BT-549 was 16.3 µM (inactive).
On to `C(=N\c1ccc(-c2nc3ccccc3[nH]2)cc1)/c1cccs1`, for which, in the test on BT-549, the GI50 was 27.4 µM (inactive).
Consider `CC(C)OCC1CC(CC(=O)Nc2nncs2)C(=O)O1` (configuration not stated), for which the GI50 in the test on BT-549 is > 100 µM (inactive).
As for `CCOC(=O)NNC(=O)NCc1ccccc1CNC(=O)NNC(=O)OCC`, the GI50 with BT-549 is > 100 µM (inactive).
In the case of `O=C1C(c2ccccc2)=C(c2ccccc2)C1(Cl)Cl`, in the test with BT-549, the GI50 is 2.47 µM (inactive).
For `COC(=O)CCCN(C)c1nc(N)n[nH]1`, the GI50 with M19-MEL, with DMS-273, in the test with KM-20L2, in the test with DLD-1, with SNB-78 and in the test on DMS-114 was > 100 µM (inactive) in each case.
Regarding `COc1ccc(CC2(Cc3ccc(OC)cc3)CCOC2=O)cc1`, the GI50 with M19-MEL is > 100 µM (inactive); in the test with DLD-1, > 100 µM (inactive); in the test with DMS-114, 23.9 µM (inactive).
Consider `CCOc1cc(C2SCC(=O)N2c2nc3cc4sc(N5C(=O)CSC5c5ccc(O)c(OCC)c5)nc4cc3s2)ccc1O` (configuration not stated), for which the GI50 with BT-549 is 9.59 µM (inactive).
Consider `O=S(=O)(c1ccccc1)C1(C2(S(=O)(=O)c3ccccc3)CCN=N2)CCN=N1` (configuration not stated), for which the GI50 in the test with M19-MEL, in the test on DMS-273, with DLD-1 and in the test on DMS-114 was > 100 µM (inactive) throughout.
Regarding `CN(C)C(=O)OC(Cn1cncn1)(Cn1cncn1)c1ccc(Cl)cc1Cl`, in the test on BT-549, the GI50 is > 100 µM (inactive).
`Cc1cc(Cl)ccc1NC(=O)CCCC(=O)C1CCCC1=O` (configuration not stated): the GI50 in the test on M19-MEL, in the test with HOP-18, in the test with DMS-273, in the test with KM-20L2, with DLD-1 and in the test on SNB-78 was > 100 µM (inactive) each time. Besides, the GI50 in the test with DMS-114 was > 100 µM (inactive).
For the compound `CC(C)=CCc1cc2c(cc1O)OC[C@H]1c3cc4c(cc3O[C@@H]21)OCO4`, the GI50 in the test on BT-549 is 23.4 µM (inactive).
On the same count and under the same terms, in the case of `COC(CN(C(=O)c1ccccc1)C1CCC2(SCCS2)c2[nH]c3ccccc3c21)OC` (configuration not stated) it was 13.7 µM (inactive); in that of `O=C1/C(=C/c2cccc(Oc3ccccc3)c2)N=C(c2ccccc2)N1c1nc2ccc(Sc3ccccc3)cc2[nH]1`, 14.9 µM (inactive); in that of `CCc1nnc(CC)n1-n1c(Cc2ccccc2)n[nH]c1=O`, > 100 µM (inactive).
As to `CC12Oc3ccc4ccccc4c3C1c1c(ccc3ccccc13)O2` (configuration not stated), the GI50 in the test on M19-MEL, in the test with DMS-273, in the test with KM-20L2, with DLD-1, with SNB-78 and with DMS-114 was > 100 µM (inactive) each time.
In the case of `CNC(=O)c1nnn(Cc2ccccc2)c1S`, the GI50 in the test with BT-549 is > 100 µM (inactive).
On to `Fc1ccc(Nc2nnc(-c3ccccn3)s2)cc1`, for which the GI50 with BT-549 is > 100 µM (inactive).
`C=CCN(C(=O)OC(C)(C)C)[C@H](C)C(=O)N[C@@H](C)C(=O)OC`: the GI50 in the test with BT-549 was > 100 µM (inactive).
In the case of `NC(=O)C(c1ccccc1)N1OC2C(=O)N(c3cccc4ccccc34)C(=O)C2C1c1c2ccccc2c(Cl)c2ccccc12` (configuration not stated), in the test on BT-549, the GI50 was 9.42 µM (inactive).
For `Cc1cc2c(C)nn(Cc3ccccc3)c2c(C(N)=O)c1C`, the GI50 with M19-MEL, in the test on DMS-273, in the test with KM-20L2, in the test with DLD-1, in the test on SNB-78 and with DMS-114 was > 100 µM (inactive) each time.
`Cn1c(NNc2ccccc2)cc(=O)[nH]c1=O`: the GI50 with BT-549 is > 100 µM (inactive).
On to `NC(CCC(=O)O)C(=O)NC(Cc1ccc(N(CCCl)CCCl)cc1)C(=O)O` (configuration not stated), for which the GI50 in the test on BT-549 is > 100 µM (inactive).
`COc1cccc(C=C2N=C(C)N(n3c(-c4ccccc4)nc4ccccc4c3=O)C2=O)c1`: in the test with BT-549, the GI50 was > 100 µM (inactive).
Regarding `Clc1ncnc2c1ncn2CCCCCCCCCCCCn1cnc2c(Cl)ncnc21`, the GI50 with M19-MEL was 2.27 µM (inactive); in the test with HOP-18 it was 17.1 µM (inactive); in the test on DMS-273, 2.71 µM (inactive); with KM-20L2 it was 16.1 µM (inactive); with DLD-1, 7.94 µM (inactive); in the test with SNB-78, 3.56 µM (inactive). Moreover, in the test with DMS-114, the GI50 was 1.67 µM (inactive).
As for `Nc1nc(Cl)cc(NCC2(CO)CCCCC2)n1`, the GI50 with BT-549 was > 100 µM (inactive).
The same measure, in the same setting: the figure for `CCOC(=O)/C(C(N)=O)=C(O)/C(O)=C(\Br)C(=O)c1ccccc1` is 18.6 µM (inactive).
`C[N+](C)(C)CC1CCC/C1=N\OC(=O)c1ccccc1` (configuration not stated): the GI50 in the test on M19-MEL, in the test on HOP-18, in the test with KM-20L2, with DLD-1, in the test with SNB-78 and in the test with DMS-114 was > 100 µM (inactive) in each case.
For the compound `Cc1cn(CC2=NCC(C)(C)N2)c(=O)[nH]c1=O`, the GI50 in the test with BT-549 was > 100 µM (inactive).
Regarding `O=C1NC(=O)C(c2c[nH]c3cc(Br)ccc23)=C1c1cn(C(c2ccccc2)(c2ccccc2)c2ccccc2)cn1`, in the test with BT-549, the GI50 is 16 µM (inactive).
With `Cc1nc(-c2nc(C)c(C(=O)/C=C/c3ccc([N+](=O)[O-])cc3)s2)sc1C(=O)/C=C/c1ccc([N+](=O)[O-])cc1`, the GI50 in the test on M19-MEL, with KM-20L2, in the test on DLD-1, with SNB-78 and in the test on DMS-114 was > 100 µM (inactive) throughout.
As for `CSC(=N/C=C/c1ccccc1)SC`, in the test with BT-549, the GI50 is > 100 µM (inactive).
Take `COc1ccc(C23OCC(Cc4cc(OC)c(OC)cc42)C3CO)cc1OC` (configuration not stated): in the test with BT-549, the GI50 is > 100 µM (inactive).
In the case of `Cc1cc(C)nc(NS(=O)(=O)c2ccc(Nc3c4ccc(Cl)cc4nc4c(C(=O)Nc5ccc(S(=O)(=O)N=C(N)N)cc5)cccc34)cc2)n1`, the GI50 was > 100 µM (inactive) in the test with M19-MEL; > 100 µM (inactive) in the test on KM-20L2; > 100 µM (inactive) in the test on DLD-1; 39.9 µM (inactive) with SNB-78; 41.7 µM (inactive) in the test on DMS-114.
On to `COC(=O)c1ccccc1CC1Cc2cccc(C)c2C1=O` (configuration not stated), for which the GI50 in the test with BT-549 is 30 µM (inactive).
In the case of `NS(=O)(=O)c1ccc(/N=N/c2cc3ccccc3c(C(=O)O)c2O)cc1`, the GI50 with BT-549 was 99.1 µM (inactive).
As for `CCOC(=O)c1c(-c2ccc(OC)cc2)c(C#N)c(=S)n(C2OC(CO)C(O)C(O)C2O)c1-c1ccccc1` (configuration not stated), in the test on BT-549, the GI50 was 37.4 µM (inactive).
`COC(=O)[C@@H](OC(C)=O)[C@@H](OC(C)=O)c1nnc2ccc(Cl)nn12`: in the test on BT-549, the GI50 is > 100 µM (inactive).
Turning to `Cc1cc(C)c2c(=O)n(CN3CC4Nc5ccccc5C4C3)sc2n1` (configuration not stated), the GI50 in the test on BT-549 was 31.2 µM (inactive).
Turning to `O=C1O[C@H](c2ccc3c(c2)OCO3)[C@H]2CO[C@@H](c3ccc4c(c3)OCO4)[C@@H]12`, the GI50 in the test on BT-549 is > 100 µM (inactive).
On the same count and under the same terms, the figure for `COc1cc2c(c(OC)c1)/C(=C/Sc1ccccc1)C(=O)N(C(C)(C)C)C2` is 26 µM (inactive).
As for `COc1ccc(C2[C@H]3C(=O)N(c4ccc(Cc5ccc(N6C(=O)[C@@H]7ON(c8ccccc8)C(c8ccc(OC)cc8)[C@@H]7C6=O)cc5)cc4)C(=O)[C@H]3ON2c2ccccc2)cc1` (some centres not stated), the GI50 in the test on M19-MEL, with HOP-18, with DMS-273, with KM-20L2, with DLD-1 and with SNB-78 was > 100 µM (inactive) throughout.
As to `[N-]=[N+]=N[C@H]1C[C@@H](CO)O[C@H]1n1cnc2c(N)ncnc21`, the GI50 in the test with M19-MEL was > 100 µM (inactive); with HOP-18, 0.202 µM (active); in the test on DMS-273 it was > 100 µM (inactive); in the test with KM-20L2 it was > 100 µM (inactive); with DLD-1, > 100 µM (inactive); with SNB-78 it was > 100 µM (inactive). The GI50 in the test with DMS-114 was > 100 µM (inactive).
In the case of `Clc1ccc(Cc2nc3cc(Cl)c(Cl)cc3n2CC2CCCN3CCCCC23)cc1` (configuration not stated), in the test on BT-549, the GI50 is 13.1 µM (inactive).
In the case of `O=C1Oc2cc(O)cc(/C=C/c3ccc(O)cc3)c2[C@@]12c1c(O)cc(O)cc1OC2c1cccc(O)c1` (some centres not stated), the GI50 with BT-549 was 49.8 µM (inactive).
As for `O=[N+]([O-])C(=C/c1cccc2ccccc12)/C(=C\c1cccc2ccccc12)[N+](=O)[O-]`, in the test with BT-549, the GI50 is 2.05 µM (inactive).
For the compound `N/C(=N/O)c1cn(C2OC(CO)C(O)C2O)c2ncnc(NO)c12` (configuration not stated), the GI50 in the test with BT-549 is 0.426 µM (active).
With `CC(O)=NC(Cc1ccc2ccccc2c1)C(O)=NC(Cc1ccc(Cl)cc1)C(O)=NC(Cc1c[nH]c2ccccc12)C(O)=NC(CO)C(O)=NC(Cc1ccc(O)cc1)C(O)=NC(CCCN=C(N)N)C(O)=NC(CC(C)C)C(O)=NC(CCCN=C(N)N)C(=O)N1CCCC1C(O)=NC(C)C(=N)O` (configuration not stated), in the test with BT-549, the GI50 is 12.1 µM (inactive).
`CC(N)(Cc1c[nH]c2ccccc12)C(=O)O` (configuration not stated): in the test on BT-549, the GI50 was > 100 µM (inactive).
Still for that read-out and setting: the figure for `NCC(=O)NC1(C(=O)O)CCCC1` (H-Gly-[Ac5c]-OH) is > 100 µM (inactive); for `O=C(NCCN(CCNC(=O)c1cccc(O)c1O)CCNC(=O)c1cccc(O)c1O)c1cccc(O)c1O` [TRENCAM] it is 23.2 µM (inactive).
